How the values were obtained:
[1] = Compound toxicity, ATPLite total ATP levels; assay type: cell-based; conditions: human, HepAD38 cells; 15,000 cells/well, three days after compound addition; 50% reduction of total ATP levels relative to no drug controls
Protocol: Methods: HepAD38 cells are maintained as previously reported (Ladner et al, Antimicrob. Agents Chemother. 1997, […], 1715). Briefly, cells are passaged upon attaining confluency in DMEM/F12 media in the presence of 10% FBS, Penn/Strep, 250 μg/mL G418, and 1 ug/ml tetracycline. Novel compounds are screened by first washing cells three times with PBS to remove tetracycline, and plating in 96 well plates at 35,000 cells/well. Compounds dissolved in DMSO are then diluted 1:200 into wells containing cells. Five days after compound addition, material is harvested for analysis. For an extended 8 day analysis, cells are plated and treated as described above, but media and compound are refreshed on d2 and d5 post initial treatment.
Compound toxicity is evaluated by seeding cells at 15,000 cells/well and treating with compound as described above. Three days after compound addition, cells are treated with ATPLite reagent and compound concentrations that reduce total ATP levels in wells by 50% relative to no drug controls (CC50) are reported; CC50 ranges are as follows: A>30 μM; B 10-30 μM; C<10 μM.

HBV = assay: HepAD38 antiviral assay: reduction of viral product accumulation (virion DNA by qPCR, HBsAg or HBeAg by ELISA); assay type: cell-based; conditions: Hepatitis B virus, 120 h; HepAD38 cells, five days after compound addition; 50% reduction of viral product accumulation relative to no drug controls; read-out: HepAD38 EC50
How it was run: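 Tetracycline-washed HepAD38 cells treated with compound (DMSO diluted 1:200) for 5 days, or 8 days with media and compound refreshed on d2 and d5. Virion DNA from lysates quantified by qPCR; HBsAg or HBeAg by ELISA. EC50 is the concentration giving 50% reduction versus no-drug controls, reported as ranges A<1 μM, B 1-10 μM, C>10 μM.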

Compound	CC50 at 3 days [1]	EC50 (HBV)
O=S(=O)(c1cc(-c2ncc(-c3cccc(F)c3)[nH]2)ccc1Cl)N1CCC(O)CC1 [Example 49]	10 to 30 µM	< 1 µM
C#Cc1cc(-c2cc(-c3ccc(Cl)c(S(=O)(=O)N4CCC(O)CC4)c3)n[nH]2)ccc1F [Example 28]	< 10 µM	< 1 µM
O=S(=O)(c1cc(-c2nc(-c3ccc(Br)c(F)c3)c[nH]2)ccc1Cl)N1CCN(c2ccccn2)CC1 [Example 130]	> 30 µM	< 1 µM
O=S(=O)(c1cc(-c2ncc(-c3ccc(F)c(F)c3)o2)ccc1Cl)N1CCC(O)CC1 [Example 26]	> 30 µM	> 10 µM
O=S(=O)(c1cc(-c2cc(-c3ccc(F)c(F)c3)[nH]n2)ccc1Cl)N1CCC(O)CC1 [Example 8]	10 to 30 µM	< 1 µM
O=S(=O)(c1cc(-c2ncc(-c3ccc(F)c(Br)c3)[nH]2)ccc1Cl)N1CCCCC1 [Example 37]	< 10 µM	< 1 µM
O=S(=O)(c1cc(-c2nc(-c3cccc(OC(F)(F)F)c3)c[nH]2)ccc1Cl)N1CCC(O)CC1 [Example 95]	> 30 µM	1 to 10 µM
O=S(=O)(c1c(Cl)ccc2c(-c3ccccc3)n[nH]c12)N1CCC(O)CC1 [Example 4]	> 30 µM	> 10 µM
O=S(=O)(c1cc(-c2ncc(-c3ccc(F)c(O)c3)[nH]2)ccc1Cl)N1CCC(O)CC1 [Example 65]	> 30 µM	> 10 µM
O=S(=O)(c1cc(-c2ncc(-c3ccc(F)c(Br)c3)[nH]2)ccc1Cl)N1CCOCC1 [Example 42]	10 to 30 µM	< 1 µM
O=S(=O)(c1cc(-c2ncc(-c3ccc(F)c(F)c3)[nH]2)cs1)N1CCC(O)CC1 [Example 7]	> 30 µM	1 to 10 µM
O=S(=O)(c1cc(-c2cc(-c3ccc(F)c(Cl)c3)[nH]n2)ccc1Cl)N1CCC(O)CC1 [Example 29]	< 10 µM	< 1 µM
COc1cccc(-c2c[nH]c(-c3ccc(Cl)c(S(=O)(=O)N4CCC(O)CC4)c3)n2)c1 [Example 93]	> 30 µM	> 10 µM
O=S(=O)(c1cc(-c2nc(-c3ccc(F)c(C(F)(F)F)c3)c[nH]2)ccc1Cl)N1CCC(O)CC1 [Example 55]	10 to 30 µM	< 1 µM
CN(CCO)S(=O)(=O)c1cc(-c2nc(-c3ccc(Br)c(F)c3)c[nH]2)ccc1Cl [Example 104]	10 to 30 µM	< 1 µM
CN(C)S(=O)(=O)c1cc(-c2ncc(-c3ccc(F)c(Br)c3)[nH]2)ccc1Cl [Example 57]	10 to 30 µM	1 to 10 µM
O=S(=O)(c1cc(-c2nc(-c3ccc(Cl)c(Cl)c3)c[nH]2)ccc1Cl)N1CCC(O)CC1 [Example 71]	10 to 30 µM	< 1 µM
COC(=O)NCCCNS(=O)(=O)c1cc(-c2ncc(-c3ccc(F)c(Br)c3)n2C(=O)OC)ccc1Cl [Example 63]	10 to 30 µM	1 to 10 µM
O=S(=O)(c1cc(-c2nc(-c3ccc(Cl)c(F)c3)c[nH]2)ccc1Cl)N1CCC(O)CC1 [Example 72]	10 to 30 µM	< 1 µM
O=S(=O)(c1cc(-c2nc(-c3ccc(Cl)c(Br)c3)c[nH]2)ccc1Cl)N1CCC(O)CC1 [Example 87]	< 10 µM	< 1 µM
COC(=O)NCCNS(=O)(=O)c1cc(-c2nc(-c3ccc(Br)c(F)c3)c[nH]2)ccc1Cl [Example 119]	< 10 µM	< 1 µM
O=S(=O)(c1ccc2[nH]c(-c3ccccc3)nc2c1)N1CCC(O)CC1 [Example 15]	> 30 µM	> 10 µM
O=S(=O)(c1cc(-c2nc3ccccc3[nH]2)ccc1Cl)N1CCC(O)CC1 [Example 9]	10 to 30 µM	> 10 µM
COC(=O)[C@@H]1CCCN1S(=O)(=O)c1cc(-c2ncc(-c3ccc(F)c(Br)c3)[nH]2)ccc1Cl [Example 36]	> 30 µM	> 10 µM
Cc1cc(-c2cnc(-c3ccc(Cl)c(S(=O)(=O)N4CCC(O)CC4)c3)[nH]2)ccc1F [Example 45]	> 30 µM	< 1 µM
O=S(=O)(c1cc(-c2nc(-c3cccc(Cl)c3)c[nH]2)ccc1Cl)N1CCC(O)CC1 [Example 53]	10 to 30 µM	< 1 µM
Cc1ccc(-c2c[nH]c(-c3ccc(Cl)c(S(=O)(=O)N4CCC(O)CC4)c3)n2)cc1F [Example 73]	> 30 µM	1 to 10 µM
O=S(=O)(c1cc(-c2nc(-c3ccc(C4CC4)cc3)c[nH]2)ccc1Cl)N1CCC(O)CC1 [Example 101]	< 10 µM	< 1 µM

Compound	CC50 at 3 days [1]	EC50 (HBV)
COC(=O)CNS(=O)(=O)c1cc(-c2nc(-c3ccc(Br)c(F)c3)c[nH]2)ccc1Cl [Example 125]	> 30 µM	> 10 µM
O=S(=O)(NCCO)c1cc(-c2ncc(-c3ccc(F)c(Br)c3)[nH]2)ccc1Cl [Example 38]	10 to 30 µM	< 1 µM
O=S(=O)(c1cc(-c2ncc(-c3ccc(F)c(C4CC4)c3)[nH]2)ccc1Cl)N1CCC(O)CC1 [Example 48]	10 to 30 µM	< 1 µM
COC(=O)NCC(C)NS(=O)(=O)c1cc(-c2nc(-c3ccc(Br)c(F)c3)c[nH]2)ccc1Cl (centres unmarked) [Example 120]	< 10 µM	< 1 µM
O=S(=O)(c1cc(-c2ncc(-c3ccc(F)c(Br)c3)[nH]2)ccc1Cl)N1CCC(F)CC1 [Example 44]	< 10 µM	< 1 µM
O=S(=O)(c1cc(-c2cnc(-c3ccc(F)c(F)c3)[nH]2)ccc1Cl)N1CCC(O)CC1 [Example 16]	> 30 µM	1 to 10 µM
O=S(=O)(c1cc(-c2nc(-c3ccccc3C3CC3)c[nH]2)ccc1Cl)N1CCC(O)CC1 [Example 122]	> 30 µM	> 10 µM
CC(C)(C)OC(=O)N1CCN(S(=O)(=O)c2cc(-c3nc(-c4ccc(Br)c(F)c4)c[nH]3)ccc2Cl)CC1 [Example 142]	< 10 µM	1 to 10 µM
O=S(=O)(NCCCO)c1cc(-c2nc(-c3ccc(Br)c(F)c3)c[nH]2)ccc1Cl [Example 116]	> 30 µM	< 1 µM
O=S(=O)(c1cc(-c2nc(-c3cccc(C4CC4)c3)c[nH]2)ccc1Cl)N1CCC(O)CC1 [Example 136]	> 30 µM	1 to 10 µM
O=S(=O)(c1cc(-c2nc(-c3ccc(Br)c(F)c3)c[nH]2)ccc1Cl)N1CCC(O)(CO)CC1 [Example 133]	> 30 µM	< 1 µM
O=S(=O)(c1cc(-c2ncc(-c3ccc(F)c(F)c3)[nH]2)ccc1Cl)N1CCC(O)CC1 [Example 12]	> 30 µM	< 1 µM
O=S(=O)(c1cc(-c2nc(-c3cc(F)c(F)c(F)c3)c[nH]2)ccc1Cl)N1CCC(O)CC1 [Example 30]	10 to 30 µM	1 to 10 µM
COC1CCN(S(=O)(=O)c2cc(-c3ncc(-c4ccc(F)c(Br)c4)[nH]3)ccc2Cl)CC1 [Example 39]	10 to 30 µM	< 1 µM
Cc1cccc(-c2c[nH]c(-c3ccc(Cl)c(S(=O)(=O)N4CCC(O)CC4)c3)n2)c1 [Example 91]	> 30 µM	1 to 10 µM
O=S(=O)(c1cc(-c2nc(-c3ccsc3)c[nH]2)ccc1Cl)N1CCC(O)CC1 [Example 69]	> 30 µM	1 to 10 µM
N#Cc1cccc(-c2c[nH]c(-c3ccc(Cl)c(S(=O)(=O)N4CCC(O)CC4)c3)n2)c1 [Example 92]	> 30 µM	1 to 10 µM
O=C1CN(S(=O)(=O)c2cc(-c3ncc(-c4ccc(F)c(Br)c4)[nH]3)ccc2Cl)CCN1 [Example 64]	10 to 30 µM	1 to 10 µM
O=S(=O)(c1cc(-c2nc(-c3ccc(Br)c(Cl)c3)c[nH]2)ccc1Cl)N1CCC(O)CC1 [Example 82]	< 10 µM	< 1 µM
O=S(=O)(c1cc(-c2nc(-c3ccccc3F)c[nH]2)ccc1Cl)N1CCC(O)CC1 [Example 68]	> 30 µM	1 to 10 µM
CC(C)N(C)S(=O)(=O)c1cc(-c2nc(-c3ccc(Br)c(F)c3)c[nH]2)ccc1Cl [Example 112]	> 30 µM	< 1 µM
O=S(=O)(c1cc(-c2ncc(-c3ccc(F)c(Br)c3)[nH]2)ccc1Cl)N1CCC(O)CC1 [Example 14]	10 to 30 µM	< 1 µM
CC(C)NS(=O)(=O)c1cc(-c2nc(-c3ccc(Br)c(F)c3)c[nH]2)ccc1Cl [Example 111]	< 10 µM	< 1 µM
CCOC(=O)NCCCNS(=O)(=O)c1cc(-c2nc(-c3ccc(Br)c(F)c3)c[nH]2)ccc1Cl [Example 147]	> 30 µM	< 1 µM
O=S(=O)(c1cc(-c2nc(-c3ccc(Br)cc3)c[nH]2)ccc1Cl)N1CCC(O)CC1 [Example 66]	10 to 30 µM	< 1 µM
O=S(=O)(c1cc(-c2nc(-c3ccc(Br)c(F)c3)c[nH]2)ccc1Cl)N1CCCC(O)CC1 (centres unmarked) [Example 137]	> 30 µM	< 1 µM
CC(CO)NS(=O)(=O)c1cc(-c2nc(-c3ccc(Br)c(F)c3)c[nH]2)ccc1Cl (centres unmarked) [Example 127]	> 30 µM	< 1 µM

— patent publication US10442788B2, “Hepatitis B antiviral agents” (ENANTA PHARMACEUTICALS, INC., priority 2015, dated 2019)
